Measurements: paper PMC5190008, “BO-1055, a novel DNA cross-linking agent with remarkable low myelotoxicity shows potent activity in sarcoma models” (Oncotarget, 2016)

Experiments:
A673 cells [1] = assay: Annexin V-APC/7-AAD apoptosis flow cytometry; format: cell-based, human; conditions: A673, 48 h, 1μM
Description: In order to quantify the apoptosis ratio in A673 cells treated with BO-1055 we performed Annexin V-APC/7-AAD staining assays. Early apoptosis was defined as the presence of Annexin V-positive and 7-AAD-negative cells. Late apoptosis was defined as Annexin V-positive and 7-AAD-positive cells. Total percent apoptosis was defined as the sum of early and late apoptotic cells as a percentage of the total cell number. BO-1055 induces apoptosis in the A673 cell line in a time-concentration dependent manner (Figure 3B). Around 50 % of treated cells entered apoptosis after 48 h at concentrations of 1μM.
Cell viability and apoptosis were determined using 7-AAD (BD Pharmingen, San Diego, CA) and Annexin V-APC (BD Pharmingen, San Diego, CA) staining according to the instructions provided by the manufacturer and as previously published. Cell cycle fractions were determined by propidium iodide nuclear staining. Briefly, cells were harvested, washed in PBS, fixed with 70% ethanol, and incubated with propidium iodide/RNase buffer (BD Biosciences, San Diego, CA) for 15 minutes at room temperature. Data was collected on BD LSR Fortessa fluorescence-activated cell analyzer using BD FACS Diva software and analyzed using FlowJo version 9.6 software (Tree Star, Inc. Ashland, OR). Cell cycle analysis was done by applying the Dean/Jett/Fox cell cycle model using FlowJo software.

γH2AX in A673 cells = assay: γ-H2AX expression by flow cytometry; format: cell-based, human; conditions: A673 compared to hMSC and cord blood CD34+ cells, 3h
Description: Staining of γ-H2AX antigen was carried out following the manufacturer's protocol. Briefly, human sarcoma cells and human mesenchymal stem cells were treated with various concentrations of BO-1055 at 37°C. At 3h, the cultures were washed with 1 ml of cold PBS three times, detached with 0.05% trypsin, and cells were pelleted. The pelleted cells were resuspended with 0.2 ml Cytofix/Cytoperm solution (BD Bioscience), incubated at 4°C for 20 minutes, and then washed with 1 ml cold Perm/Wash solution (BD Bioscience) three times. After anti-human γ-H2AX antibody (BD Bioscience) staining, the specimens were subjected to flow cytometric analysis via a Calibur flow instrument (BD Bioscience).

Ewing sarcoma cell lines = assay: Alamar Blue cell proliferation assay; format: cell-based, human
Description: (§1) AlamarBlue® assay (Invitrogen, Carlsbad, CA, USA) was performed to evaluate anti-proliferative activity of the drugs in cell lines and primary cells. Cells were plated in 96-well plates ([…] in 200 μL of medium). After 12 h, one of the previously mentioned drugs was added to each well at the specified concentration and incubated for 72 h. At the end of the incubation period, 20 μL of stock solution (0.312 mg/mL) of the Alamar Blue was added to each well. The absorbance was measured using the Synergy H1 hybrid multi-mode microplate reader (BioTek, USA). The drug effect was quantified as the percentage of control absorbance at 540 nm and 585 nm. Optical density was determined for 3 replicates per treatment condition and cell proliferation in drug-treated cells was normalized to their respective controls. All experiments were performed in triplicate.
(§2) Data are presented as mean±S.E.M. of at least three independent experiments done in triplicate. […] Combination index (CI) values, as calculated by CompuSyn software (Chou and Martin, 2007), were used to evaluate the interaction between BO-1055 and a second drug (Topotecan, SN38, Doxorubicin or PU-H71). The Chou-Talalay method was used to quantify the synergism (CI < 1), additive effect (CI = 1) and antagonism (CI > 1) of various drug combinations.

[2] = system: rhabdomyosarcoma cell lines; assay: Alamar Blue cell proliferation assay; format: cell-based, human
Description: as §1, §2

A673 cells [3] = assay: Drug combination study (Alamar Blue, Chou-Talalay combination index); format: cell-based, human
Description: The AlamarBlue® cell proliferation assay was used to test the effect of a single drug and a combination of drugs. A673 cells (5 × 10^3 cells/well) were added to 96 well plates in triplicate. After 12h incubation, BO-1055 and a second drug (Topotecan, SN38, Doxorubicin or PU-H71) were added simultaneously in a lattice format in varying concentrations. Plates were read after 72h drug exposure. Combination indices were derived as described below to identify the interaction in two-drug combinations.
(§3) Data are presented as mean±S.E.M. of at least three independent experiments done in triplicate. The comparison of means between treated and control mice was performed using two-tailed T-test or ANOVA (for more than two groups) as implemented in GraphPad Prism (version 4; GraphPad Software). Graphpad Prism software was used to plot concentration-effect curves and determine the drug concentration that inhibited the growth of cell lines by 50% compared to the control (IC50). A p-value of 0.05 or less was considered significant. Combination index (CI) values, as calculated by CompuSyn software (Chou and Martin, 2007), were used to evaluate the interaction between BO-1055 and a second drug (Topotecan, SN38, Doxorubicin or PU-H71). The Chou-Talalay method was used to quantify the synergism (CI < 1), additive effect (CI = 1) and antagonism (CI > 1) of various drug combinations.

[4] = design: method as in PMID 23353940; conditions: rats, HPLC-PDA ref 7; cited from earlier work
CCRF-CEM/Taxol cells = system: CCRF-CEM/Taxol cells; design: method as in PMID 21106377; conditions: CCRF-CEM/Taxol ref 6; cited from earlier work
osteosarcoma cell lines = assay: Alamar Blue cell proliferation assay; format: cell-based; conditions: Homo sapiens
Description: as §1, §3

SAOS cells = assay: Alamar Blue cell proliferation assay; format: cell-based; conditions: Homo sapiens, 72 h drug exposure
Description: as §1, §3

RH30 cells = assay: Alamar Blue cell proliferation assay; format: cell-based; conditions: Homo sapiens; RH30, 72 h drug exposure
Description: as §1, §3

A204 cells = assay: Alamar Blue cell proliferation assay; format: cell-based; conditions: Homo sapiens; A204, 72 h drug exposure
Description: as §1, §3

OSA cells = assay: Alamar Blue cell proliferation assay; format: cell-based; conditions: Homo sapiens, 72 h drug exposure
Description: as §1, §3

DSRCT cell lines = assay: Alamar Blue cell proliferation assay; format: cell-based; conditions: Homo sapiens
Description: as §1, §3

A673 cells [5] = assay: Alamar Blue cell proliferation assay; format: cell-based; conditions: Homo sapiens; A673, 72 h drug exposure
Description: as §1, §3

U2OS cells = assay: Alamar Blue cell proliferation assay; format: cell-based; conditions: Homo sapiens, 72 h drug exposure
Description: as §1, §3

H526 cells = assay: Alamar Blue cell proliferation assay; format: cell-based; conditions: Homo sapiens, NCI-H526; H526 (small cell lung cancer)
Description: as §1, §3

TC32 cells = assay: Alamar Blue cell proliferation assay; format: cell-based; conditions: Homo sapiens, TC-32; TC32, 72 h drug exposure
Description: as §1, §3

With `CN(C)CCNC(=O)c1cccc(NC(=O)Nc2ccc(N(CCCl)CCCl)cc2)c1` [BO-1055] the “treated cells entering apoptosis” value (A673 cells [1]) was “Around 50%”, the γH2AX level (γH2AX in A673 cells) was “significantly elevated” and the IC50 (Ewing sarcoma cell lines) was “submicromolar”. The IC50 [2] was “submicromolar”, the “drug interaction (combination index)” value (A673 cells [3]; BO-1055 combined with PU-H71, A673, 72h) was “synergistic” and the “drug interaction (combination index)” value (A673 cells [3]; BO-1055 combined with SN-38, A673, 72h) was “highly synergistic”. The “drug interaction (combination index)” value (A673 cells [3]; BO-1055 combined with doxorubicin, A673, 72h) was “synergistic”, the “drug interaction (combination index)” value (A673 cells [3]; BO-1055 combined with topotecan, A673, 72h) was “synergistic” and the elimination [4] was “slow elimination”. For the same compound, the tissue distribution [4] was “rapid distribution to all organs except brain”, the “resistance of CCRF-CEM/Taxol cells” value (CCRF-CEM/Taxol cells) was 9.4 fold and the IC50 (osteosarcoma cell lines) was over 10 µM. For the same compound, the IC50 (SAOS cells) was over 10 µM, the IC50 (RH30 cells) was 0.24 µM and the IC50 (A204 cells) was 0.08 µM. The IC50 (OSA cells) was over 10 µM, the IC50 (DSRCT cell lines) was 2 to 3 µM and the IC50 (A673 cells [5]) was 0.52 µM. It also gave an IC50 (U2OS cells) of over 10 µM, an IC50 (H526 cells) of 0.25 µM and an IC50 (TC32 cells) of 0.6 µM.
